From patent US9062041B2 (Bayer Intellectual Property GmbH, priority 2011, dated 2015)
pIC50: −log10 of the molar value.

Key:
Format in all cases: cell-based
[1] = molecular target: EP2 subtype of the human PGE2 receptor (Homo sapiens, UniProt P43116); assay: cAMP antagonism test on the human EP2 receptor (HTRF cAMP detection); settings: hEP2 receptor, read-out: Antagonism hEP2 IC50
Summary of the method: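 Read-out is a competitive HTRF for cAMP: lysate cAMP displaces cAMP-d2 from Eu cryptate-labelled antibody, and antagonism raises the 665/620 nm ratio. Compound (0.8 nM–16.5 μM) added to EP2 cells 20 min at RT before 60 min PGE2 challenge (3× stock 1.5 nM) with IBMX, followed by 20 min lysis.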

[2] = molecular target: EP4 subtype of the human PGE2 receptor (Homo sapiens, UniProt P35408); assay: cAMP antagonism test on the human EP4 receptor (HTRF cAMP detection); settings: selectivity towards hEP4, IC50 measured by cAMP antagonism test
Summary of the method: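 Competitive HTRF cAMP read-out (cAMP-d2 vs Eu-cryptate anti-cAMP antibody, 665/620 nm ratio) on lysed human EP4 cells. Compound (0.8 nM–16.5 μM) applied 20 min at RT before 60 min PGE2 challenge (3× solution 0.3 nM, IBMX present); 20 min lysis precedes reading.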

[3] = molecular target: T1, human PGD receptor (Homo sapiens, UniProt Q13258); assay: cAMP antagonism test on the human prostaglandin D receptor (HTRF cAMP detection); settings: selectivity towards hDP, IC50 measured by cAMP antagonism test
T1 sequence (Q13258 1-359): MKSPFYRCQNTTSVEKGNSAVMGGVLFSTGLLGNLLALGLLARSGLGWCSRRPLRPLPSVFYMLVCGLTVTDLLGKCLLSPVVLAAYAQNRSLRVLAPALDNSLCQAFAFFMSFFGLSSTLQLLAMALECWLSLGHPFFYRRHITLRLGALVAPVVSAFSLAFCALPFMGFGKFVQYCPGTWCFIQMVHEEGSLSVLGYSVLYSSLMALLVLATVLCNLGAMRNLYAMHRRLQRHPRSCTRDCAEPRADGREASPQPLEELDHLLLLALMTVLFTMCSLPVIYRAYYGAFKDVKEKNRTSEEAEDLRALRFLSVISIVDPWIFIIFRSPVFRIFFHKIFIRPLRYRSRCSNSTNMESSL
Summary of the method: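 HTRF competition read-out (665/620 nm ratio ×10000), where higher FRET means less cAMP, i.e. antagonism. Compounds (0.8 nM–16.5 μM) were preincubated 20 min at RT with cells and cAMP-d2, PGD2 (3× solution, 6 nM) in IBMX-containing PBS added for 30 min at RT, then cells lysed 20 min.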

Chain of EP4 subtype of the human PGE2 receptor (P35408 whole entry): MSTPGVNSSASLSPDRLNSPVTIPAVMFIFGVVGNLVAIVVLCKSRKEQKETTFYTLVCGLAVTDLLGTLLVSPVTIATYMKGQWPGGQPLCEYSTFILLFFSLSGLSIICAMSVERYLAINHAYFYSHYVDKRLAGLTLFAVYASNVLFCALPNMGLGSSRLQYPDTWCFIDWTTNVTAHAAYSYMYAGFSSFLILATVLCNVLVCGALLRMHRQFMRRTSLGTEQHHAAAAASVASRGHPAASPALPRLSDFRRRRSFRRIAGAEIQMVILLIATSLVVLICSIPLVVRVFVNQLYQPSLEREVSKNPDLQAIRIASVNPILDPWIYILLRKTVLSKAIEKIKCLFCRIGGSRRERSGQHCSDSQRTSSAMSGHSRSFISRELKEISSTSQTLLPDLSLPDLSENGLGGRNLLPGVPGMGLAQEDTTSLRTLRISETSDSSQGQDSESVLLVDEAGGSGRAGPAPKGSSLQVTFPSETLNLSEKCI
Chain of EP2 subtype of the human PGE2 receptor (P43116 whole entry): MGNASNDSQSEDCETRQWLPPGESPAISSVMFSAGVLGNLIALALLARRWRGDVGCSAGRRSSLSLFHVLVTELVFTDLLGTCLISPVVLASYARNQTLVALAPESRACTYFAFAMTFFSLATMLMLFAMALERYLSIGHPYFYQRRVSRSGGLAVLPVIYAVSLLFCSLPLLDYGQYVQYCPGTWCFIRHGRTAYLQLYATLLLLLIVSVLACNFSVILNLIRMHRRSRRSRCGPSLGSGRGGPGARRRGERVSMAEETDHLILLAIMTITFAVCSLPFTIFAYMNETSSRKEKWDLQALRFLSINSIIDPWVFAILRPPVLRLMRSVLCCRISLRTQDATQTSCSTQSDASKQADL

Row | SMILES | pIC50 [1] | Selectivity hEP2/hEP4 [2] | Selectivity hEP2/hDP [3]
1 | Cc1c(C(=O)NCCN2CCOCC2)ccc2nn(CC3CCN(C(=O)c4ccc(-c5ccc(F)cc5)cc4)CC3)cc12 [Example 66, 2-({1-[(4′-fluoro-biphenyl-4-yl)-carbonyl]piperidin-4-yl}methyl)-4-methyl-N-(2-morpholino-ethyl)-2H-indazol-5-carboxamide] | 6.49 | xx (xx: 10-100) | xx (xx: 10-100)
2 | COCCNC(=O)c1ccc2nn(CC3CCN(C(=O)c4cc5ccccc5n4C)CC3)cc2c1C [Example 29, N-(2-methoxyethyl)-4-methyl-2-({1-[(1-methyl-1H-indol-2-yl)carbonyl]-piperidin-4-yl}methyl)-2H-indazol-5-carboxamide] | 8.03 | xxx (xxx > 100) | xxx (xxx > 100)
3 | COC(C)CNC(=O)c1cc2cn(CC3CN(C(=O)c4ccc(OC(F)(F)F)cc4)C3)nc2cc1C (racemic) [Example 193, (+/−)-N-(2-methoxypropyl)-6-methyl-2-({1-[4-(trifluoromethoxy)benzoyl]-azetidin-3-yl}methyl)-2H-indazol-5-carboxamide] | 6.84 | xxx (xxx > 100) | xxx (xxx > 100)
4 | COCCNC(=O)c1ccc2nn(CC3CCN(C(=O)c4ccc(C#N)cc4F)CC3)cc2c1C [Example 1, 2-{[1-(4-cyano-2-fluorobenzoyl)piperidin-4-yl]methyl}-N-(2-methoxyethyl)-4-methyl-2H-indazol-5-carboxamide] | 6.99 | xxx (xxx > 100) | xxx (xxx > 100)
5 | COCCNC(=O)c1ccc2nn(CC3CCN(C(=O)c4ccc(OC(F)(F)F)cc4)CC3)cc2c1C [Example 55, N-(2-methoxyethyl)-4-methyl-2-({1-[4-(trifluoromethoxy)benzoyl]piperidin-4-yl}methyl)-2H-indazol-5-carboxamide] | 8.01 | xxx (xxx > 100) | xxx (xxx > 100)
6 | Cc1c(C(=O)NCCN2CCOCC2)ccc2nn(CC3CCN(C(=O)c4cccc(C(F)(F)F)c4)CC3)cc12 [Example 65, 4-methyl-N-(2-morpholinoethyl)-2-({1-[3-(trifluoromethyl)benzoyl]piperidin-4-yl}methyl)-2H-indazol-5-carboxamide] | 5.55 | x (x: 1-10) | x (x: 1-10)
7 | COCCNC(=O)c1ccc2nn(CC3CN(C(=O)c4ccc(Cl)cc4F)C3)cc2c1OC [Example 257, 2-{[1-(4-chloro-2-fluorobenzoyl)azetidin-3-yl]methyl}-4-methoxy-N-(2-methoxyethyl)-2H-indazol-5-carboxamide] | 6.99 | xxx (xxx > 100) | xxx (xxx > 100)
8 | Cc1c(C(=O)NCC(F)(F)F)ccc2nn(CC3CCN(C(=O)c4ccc(Oc5ccc(F)c(F)c5)cc4)CC3)cc12 [Example 314, 2-({1-[4-(3,4-difluorophenoxy)benzoyl]piperidin-4-yl}methyl)-4-methyl-N-(2,2,2-trifluoroethyl)-2H-indazol-5-carboxamide] | 7.56 | xxx (xxx > 100) | xxx (xxx > 100)
9 | COCCNC(=O)c1ccc2nn(CC3CCN(C(=O)c4ccc(-c5ccc(F)cc5F)cc4)CC3)cc2c1C [Example 48, 2-({1-[(2′,4′-difluoro-biphenyl-4-yl)-carbonyl]piperidin-4-yl}methyl)-N-(2-methoxyethyl)-4-methyl-2H-indazol-5-carboxamide] | 8.25 | xxx (xxx > 100) | xxx (xxx > 100)
10 | COCCNC(=O)c1ccc2nn(CC3CN(C(=O)c4ccc(Oc5ccc(F)cc5)cc4)C3)cc2c1C [Example 159, 2-({1-[4-(4-fluorophenoxy)benzoyl]azetidin-3-yl}methyl)-N-(2-methoxyethyl)-4-methyl-2H-indazol-5-carboxamide] | 8.20 | xxx (xxx > 100) | xxx (xxx > 100)
11 | Cc1cc2nn(CC3CCN(C(=O)c4ccc(-c5ccc(F)cc5)cc4)CC3)cc2cc1C(=O)NCCN1CCOCC1 [Example 83, 2-({l-[(4′-fluoro-biphenyl-4-yl)-carbonyl]piperidin-4-yl}methyl)-6-methyl-N-(2-morpholino-ethyl)-2H-indazol-5-carboxamide] | 7.49 | xxx (xxx > 100) | xxx (xxx > 100)
12 | Cc1c(C(=O)NCCOCC(F)(F)F)ccc2nn(CC3CCN(C(=O)c4ccc(-c5ccc(F)cc5)cc4)CC3)cc12 [Example 94, 2-({1-[(4′-fluoro-biphenyl-4-yl)-carbonyl]piperidin-4-yl}methyl)-4-methyl-N-[2-(2,2,2-trifluoroethoxy)-ethyl]-2H-indazol-5-carboxamide] | 7.89 | xxx (xxx > 100) | xxx (xxx > 100)
13 | Cc1c(C(=O)NCC2COCCO2)ccc2nn(CC3CCN(C(=O)c4ccc(-c5ccc(F)cc5)cc4)CC3)cc12 (racemic) [Example 411, (+/−)-N-(1,4-dioxan-2-ylmethyl)-2-({1-[(4′-fluorobiphenyl-4-yl)carbonyl]-piperidin-4-yl}methyl)-4-methyl-2H-indazol-5-carboxamide] | 7.78 | xxx (xxx > 100) | xxx (xxx > 100)
14 | Cc1cc2nn(CC3CN(C(=O)c4ccc(OC(F)(F)F)cc4)C3)cc2cc1C(=O)NCCOC(F)(F)F [Example 196, 6-methyl-2-({1-[4-(trifluoromethoxy)benzoyl]azetidin-3-yl}methyl)-N-[2-(trifluoromethoxy)ethyl]-2H-indazol-5-carboxamide] | 7.29 | xxx (xxx > 100) | xxx (xxx > 100)
15 | COC(C)CNC(=O)c1cc2cn(CC3CN(C(=O)c4ccc(Cl)cc4)C3)nc2cc1C (racemic) [Example 192, (+/−)-2-{[1-(4-chlorobenzoyl)azetidin-3-yl]methyl}-N-(2-methoxypropyl)-6-methyl-2H-indazol-5-carboxamide] | 6.69 | xx (xx: 10-100) | xx (xx: 10-100)
16 | COCCNC(=O)c1ccc2nn(CC3CCN(C(=O)c4ccc(-c5ccc(Cl)cn5)cc4)CC3)cc2c1C [Example 368, 2-({1-[4-(5-chloropyridin-2-yl)benzoyl]piperidin-4-yl}methyl)-N-(2-methoxy-ethyl)-4-methyl-2H-indazol-5-carboxamide] | 7.92 | xxx (xxx > 100) | xxx (xxx > 100)
17 | COCCNC(=O)c1cc2cn(CC3CN(C(=O)c4ccc(-c5ccc(F)cc5)cc4)C3)nc2cc1C [Example 204, 2-({1-[(4′-fluorobiphenyl-4-yl)carbonyl]azetidin-3-yl}methyl)-N-(2-methoxy-ethyl)-6-methyl-2H-indazol-5-carboxamide] | 8.00 | xxx (xxx > 100) | xxx (xxx > 100)
18 | Cc1c(C(=O)NCCSC(F)(F)F)ccc2nn(CC3CN(C(=O)c4ccc(C(F)(F)F)cc4F)C3)cc12 [Example 134, 2-({1-[2-fluoro-4-(trifluoromethyl)benzoyl]azetidin-3-yl}methyl)-4-methyl-N-{2-[(trifluoromethyl)sulphanyl]ethyl}-2H-indazol-5-carboxamide] | 7.25 | xxx (xxx > 100) | xxx (xxx > 100)
19 | Cc1c(C(=O)NCC(F)(F)F)ccc2nn(CC3CCN(C(=O)c4ccc(-c5ccc(C(F)(F)F)cc5)cc4)CC3)cc12 [Example 315, 4-methyl-N-(2,2,2-trifluoroethyl)-2-[(1-{[4′-(trifluoromethyl)biphenyl-4-yl]-carbonyl}piperidin-4-yl)methyl]-2H-indazol-5-carboxamide] | 7.37 | xxx (xxx > 100) | xxx (xxx > 100)
20 | Cc1cc2nn(CC3CN(C(=O)c4ccc(Cl)cc4)C3)cc2cc1C(=O)NCC(F)(F)F [Example 190, 2-{[1-(4-chlorobenzoyl)azetidin-3-yl]methyl}-6-methyl-N-(2,2,2-trifluoroethyl)-2H-indazol-5-carboxamide] | 6.57 | xx (xx: 10-100) | xx (xx: 10-100)
21 | Cc1c(C(=O)NCC#N)ccc2nn(CC3CCN(C(=O)c4ccc(Oc5ccc(C(F)(F)F)cc5)cc4)CC3)cc12 [Example 247, N-(cyanomethyl)-4-methyl-2-[(1-{4-[4-(trifluoromethyl)phenoxy]benzoyl}piperidin-4-yl)methyl]-2H-indazol-5-carboxamide] | 7.90 | xxx (xxx > 100) | xxx (xxx > 100)
